Earlier results on one molecule are cited in patent publication US20040219200A1, “Topical patch preparation containing a delayed-type hypersensitivity inducer and methods for using the same” (priority 2001, published 2004).

The conditions of this data set: research conducted in the 1950s in the US.

For the molecule `O=[N+]([O-])c1ccc(Cl)c([N+](=O)[O-])c1` [DNCB, 1-chloro-2,4-dinitrobenzene], the Carcinogenicity entry is recorded as “not carcinogenic”.
